What all share (assay type): cell-based
The target of experiment [1] is T1, Ikaros (Homo sapiens, UniProt Q13422+Q96SW2). Kind of experiment: Helios Cellular Degradation Assay (Ikaros readout). The arrangement: Jurkat cells were plated at 80,000 cells/well; endogenous in cells; host or cells: Jurkat. To be noted: Jurkat cells, 72 h incubation, Ikaros-Alexa488 antibody staining, flow cytometry; read-out: Ikaros Jurkat IC50. The protocol:
(§1) Jurkat cells were plated at 80,000 cells/well in 40 μL RPMI+10% FBS in a 384 well cell culture plate prior to using acoustic dispensing technology for adding compound of interest. Cell cultures were incubated for 72 h at 37° C. and 5% C02. In order to facilitate analysis, cell cultures were spun down at 200 rpm for 5 min and the supernatant was discarded. After shaking the plate to dislodge the cell pellet, cells were resuspended in 50 μL of Fixation Buffer (eBioScience FoxP3 buffer set 00-5523-00) for 60 min at room temperature. After centrifuging and discarding the supernatant, cells were permeabilized with 50 μL of Permeabilization buffer (eBioScience FoxP3 buffer set 00-5523-00) for 10 min at room temperature. Following permeabilization, cells were spun down and the supernatant was replaced with 20 μL fluorescently labelled antibodies against Helios, Ikaros and Aiolos or corresponding Isotype controls in 1× Permeabilization buffer (Ikaros-Alexa488 [Biolegend, Cat #368408, 1:50], Helios-PE [CST, Cat #29360, 1:50], Aiolos-Alexa647 [Biolegend, Cat #371106Biolegend, 1:25]) and staining reactions were incubated for 1 h at room temperature; protected from light. […] Stained cells were resuspended in 25 μL of flow cytometry staining buffer (PBS+0.2% BSA) and analyzed using an Intellicyt Ique Plus flow cytometer.
(In flow cytometry, cells or beads pass a laser one at a time.)

The target in experiment [2] is T2, Helios (Homo sapiens, UniProt Q96SW2+Q9UKS7). Kind of experiment: Helios Cellular Degradation Assay (Helios readout). More on the design: Jurkat cells were plated at 80,000 cells/well; endogenous in cells; host or cells: Jurkat. To be noted: Jurkat cells, 72 h incubation, Helios-PE antibody staining, flow cytometry; read-out: Helios Jurkat IC50. The procedure: as §1
T2 sequence (Q9UKS7 whole entry): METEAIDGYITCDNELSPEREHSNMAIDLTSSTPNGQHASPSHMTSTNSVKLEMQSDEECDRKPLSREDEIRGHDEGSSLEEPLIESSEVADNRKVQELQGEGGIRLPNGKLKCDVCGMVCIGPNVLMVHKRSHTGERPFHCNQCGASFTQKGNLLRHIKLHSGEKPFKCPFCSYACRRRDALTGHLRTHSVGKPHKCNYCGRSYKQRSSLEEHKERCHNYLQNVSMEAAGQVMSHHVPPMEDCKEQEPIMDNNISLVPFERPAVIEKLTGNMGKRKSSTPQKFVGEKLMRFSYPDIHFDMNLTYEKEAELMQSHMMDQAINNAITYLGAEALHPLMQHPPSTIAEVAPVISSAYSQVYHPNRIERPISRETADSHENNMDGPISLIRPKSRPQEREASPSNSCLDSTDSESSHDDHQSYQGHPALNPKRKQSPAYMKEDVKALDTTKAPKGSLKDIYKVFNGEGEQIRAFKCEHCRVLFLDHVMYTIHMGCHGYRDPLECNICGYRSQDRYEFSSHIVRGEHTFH
T2 sequence (Q96SW2 whole entry): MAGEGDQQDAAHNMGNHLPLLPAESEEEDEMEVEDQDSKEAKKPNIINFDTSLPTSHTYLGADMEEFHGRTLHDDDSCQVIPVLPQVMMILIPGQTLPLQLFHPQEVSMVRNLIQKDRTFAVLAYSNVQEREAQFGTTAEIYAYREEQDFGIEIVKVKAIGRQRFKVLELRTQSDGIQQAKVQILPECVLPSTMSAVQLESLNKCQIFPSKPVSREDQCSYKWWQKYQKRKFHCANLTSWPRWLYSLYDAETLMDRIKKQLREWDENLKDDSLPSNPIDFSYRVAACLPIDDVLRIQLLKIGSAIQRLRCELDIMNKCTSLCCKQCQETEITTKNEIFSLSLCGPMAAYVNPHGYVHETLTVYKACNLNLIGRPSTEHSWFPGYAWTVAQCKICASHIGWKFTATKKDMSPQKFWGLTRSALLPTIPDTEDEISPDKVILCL
T2 sequence (Q16531 whole entry partner): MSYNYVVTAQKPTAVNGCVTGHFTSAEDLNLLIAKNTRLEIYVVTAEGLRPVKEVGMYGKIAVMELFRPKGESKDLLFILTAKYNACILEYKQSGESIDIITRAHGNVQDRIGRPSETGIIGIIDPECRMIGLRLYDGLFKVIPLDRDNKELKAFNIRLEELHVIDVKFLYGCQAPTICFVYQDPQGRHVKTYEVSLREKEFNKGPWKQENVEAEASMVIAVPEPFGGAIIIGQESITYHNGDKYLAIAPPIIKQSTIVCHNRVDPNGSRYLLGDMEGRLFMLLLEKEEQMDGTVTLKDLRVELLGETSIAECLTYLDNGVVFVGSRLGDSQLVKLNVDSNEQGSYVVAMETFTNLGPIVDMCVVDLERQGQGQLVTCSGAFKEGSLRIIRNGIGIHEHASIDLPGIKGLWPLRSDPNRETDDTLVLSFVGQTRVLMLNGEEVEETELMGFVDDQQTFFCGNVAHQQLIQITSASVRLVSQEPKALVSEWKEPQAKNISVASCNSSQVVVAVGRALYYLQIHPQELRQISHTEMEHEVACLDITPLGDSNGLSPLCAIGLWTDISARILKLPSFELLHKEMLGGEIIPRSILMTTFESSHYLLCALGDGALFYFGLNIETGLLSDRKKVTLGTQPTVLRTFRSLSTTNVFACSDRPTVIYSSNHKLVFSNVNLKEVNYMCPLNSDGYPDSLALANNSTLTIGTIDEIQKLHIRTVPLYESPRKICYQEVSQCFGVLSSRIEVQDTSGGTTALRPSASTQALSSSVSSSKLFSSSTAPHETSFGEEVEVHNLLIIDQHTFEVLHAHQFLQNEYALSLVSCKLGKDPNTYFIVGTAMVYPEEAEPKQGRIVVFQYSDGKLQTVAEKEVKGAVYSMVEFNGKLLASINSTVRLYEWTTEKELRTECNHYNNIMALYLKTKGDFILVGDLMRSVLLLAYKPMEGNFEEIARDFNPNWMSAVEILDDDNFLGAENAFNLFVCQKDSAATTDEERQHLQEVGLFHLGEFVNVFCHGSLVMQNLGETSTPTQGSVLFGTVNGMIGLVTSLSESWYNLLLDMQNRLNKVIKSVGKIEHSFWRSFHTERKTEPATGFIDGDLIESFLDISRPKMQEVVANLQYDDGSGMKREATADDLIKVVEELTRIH

Experiment [3] concerns the target T2, Helios. Description: Helios Cellular Degradation Assay (Helios readout). More on the design: endogenous in cells; host or cells: Jurkat. To be noted: Jurkat cells, 72 h incubation, Helios-PE antibody staining, flow cytometry; read-out: Helios Jurkat IC50. In a few lines: (§2)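 Jurkat cells (80,000/well, RPMI+10% FBS) were treated with compound for 72 h at 37° C. After fixation and permeabilization they were stained with fluorescent antibodies to Helios, Ikaros and Aiolos. Intracellular protein levels were quantified by flow cytometry.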

For experiment [4], the target named is T1, Ikaros. Description: Helios Cellular Degradation Assay (Ikaros readout). More on the design: endogenous in cells; host or cells: Jurkat. To be noted: Jurkat cells, 72 h incubation, Ikaros-Alexa488 antibody staining, flow cytometry; read-out: Ikaros Jurkat IC50. In outline: as §2

Each structure is given as a SMILES string. Where two headings read alike, the source gives them in different places.

T1 sequence (Q13422 whole entry): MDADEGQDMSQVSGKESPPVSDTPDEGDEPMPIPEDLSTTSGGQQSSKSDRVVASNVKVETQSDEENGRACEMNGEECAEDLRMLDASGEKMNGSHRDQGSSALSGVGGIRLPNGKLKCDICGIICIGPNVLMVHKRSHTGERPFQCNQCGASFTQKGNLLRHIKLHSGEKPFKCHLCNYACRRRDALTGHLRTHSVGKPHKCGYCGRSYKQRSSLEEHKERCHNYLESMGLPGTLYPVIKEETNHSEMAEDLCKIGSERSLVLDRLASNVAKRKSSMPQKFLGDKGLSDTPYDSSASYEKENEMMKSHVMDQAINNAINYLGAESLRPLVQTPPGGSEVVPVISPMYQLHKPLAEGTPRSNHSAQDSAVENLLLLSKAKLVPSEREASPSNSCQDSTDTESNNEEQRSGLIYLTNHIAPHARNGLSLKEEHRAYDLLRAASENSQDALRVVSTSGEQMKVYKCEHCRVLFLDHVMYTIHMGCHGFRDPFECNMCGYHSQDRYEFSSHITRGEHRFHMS
T1 sequence (Q96SW2 whole entry): as the sequence (Q96SW2 whole entry) above
T1 sequence (Q16531 whole entry partner): as the sequence (Q16531 whole entry partner) above

For the compound `O=C1CCC(N2Cc3cc(-c4cc(COCc5ccccc5)ccn4)ccc3C2=O)C(=O)N1` (centres unmarked) [Example 154], the values for the DC50 in experiment [1] and in experiment [2] were no less than 10 µM and 3.98 µM, respectively.
As to `CC(=O)N1CCN(c2cc(N)nc(-c3ccc4c(c3)CN(C3CCC(=O)NC3=O)C4=O)c2)CC1` (centres unmarked) [Example 186, 3-(5-(4-(4-acetylpiperazin-1-yl)-6-aminopyridin-2-yl)-1-oxoisoindolin-2-yl)piperidine-2,6-dione], the DC50 in experiment [3] and in experiment [4] was no less than 10 µM throughout.
On to `CNc1cc(C)cc(-c2ccc3c(c2)CN(C2CCC(=O)NC2=O)C3=O)n1` (centres unmarked) [Example 187, 3-(5-(4-Methyl-6-(methylamino)pyridin-2-yl)-1-oxoisoindolin-2-yl)piperidine-2,6-dione], for which the figures for the DC50 in experiment [3] and in experiment [4] were 0.01 µM and no less than 10 µM, respectively.
On the same counts, the results for `CCNc1cc(C)cc(-c2ccc3c(c2)CN(C2CCC(=O)NC2=O)C3=O)n1` (centres unmarked) [Example 188, 3-(5-(6-(Ethylamino)-4-methylpyridin-2-yl)-1-oxoisoindolin-2-yl)piperidine-2,6-dione] are 0.04 µM and no less than 10 µM.

Source of the values: patent publication US12570671B2 (BRISTOL-MYERS SQUIBB COMPANY, priority 2020, dated 2026).
